Patent US8507493B2 (AbbVie Inc., priority 2009, dated 2013)
pKi: −log10 of the molar value.

Target: T1, human 11β-HSD1 (Homo sapiens, UniProt P28845)
T1 construct: truncated (24-287aa) human 11β-HSD1 enzyme; made in house; host or cells: E. coli (lysate, not purified)
Experiment: Human 11β-HSD1 enzymatic SPA assay
Assay type: biochemical
Conditions: truncated (24-287aa) human 11β-HSD1, apparent Ki from IC50 by Cheng-Prusoff
Description: The ability of test compounds to inhibit human 11β-HSD1 enzymatic activity in vitro was evaluated in a Scintillation Proximity Assay (SPA). Tritiated-cortisone substrate, NADPH cofactor and titrated compound were incubated with truncated (24-287aa) human 11β-HSD1 enzyme at room temperature to allow the conversion to cortisol to occur. The reaction was stopped by adding a non-specific 11β-HSD inhibitor, glycyrrhetinic acid. The tritiated cortisol was captured by a mixture of an anti-cortisol monoclonal antibody and SPA beads coated with anti-mouse antibodies. The reaction plate was shaken at room temperature and the radiolabel bound to SPA beads was then measured on a scintillation counter. The 11β-HSD1 assay was carried out in 96-well microtiter plates in a total volume of […]. To start the assay, 188 μL of master mix which contained 75 nM ^3H-cortisone, 100 nM cortisone and 181 μM NADPH was added to the wells. In order to drive the reaction in the 11β-reductase direction, 1 mM glucose-6-phosphate (G-6-P) and 1 U/mL G-6-P dehydrogenase were also added as a NADPH generating system. Solid compound was dissolved in dimethyl sulfoxide to make a 10 mM stock followed by a subsequent 10-fold serial dilution with dimethyl sulfoxide. Each compound solution in dimethyl sulfoxide was 10-fold diluted in Tris/EDTA buffer (pH 7.4). 22 μL of titrated compound were then added in duplicate to the substrate. Reactions were initiated by the addition of 10 μL of 0.1 mg/mL E. coli lysates overexpressing 11β-HSD1 enzyme. After shaking and incubating plates for 30 minutes at room temperature, reactions were stopped by adding 10 μL of 1 mM glycyrrhetinic acid. The product, tritiated cortisol, was captured by adding 10 μL of 1 μM monoclonal mouse anti-cortisol antibodies and 50 μL of SPA beads coated with anti-mouse antibodies. After shaking for 30 minutes, plates were read in a Microbeta scintillation counter. Percent inhibition was calculated based on the background and the maximal signal. Wells that contained substrate without compound or enzyme were used as the background, while the wells that contained substrate and enzyme without any compound were considered as maximal signal. Percent of inhibition of each compound was calculated relative to the maximal signal and IC50 curves were generated. Assuming competitive inhibition the Cheng-Prusoff equation was used to calculate apparent Ki values from the IC50 values. This assay was applied to 11β-HSD2 as well, whereby 6 nM tritiated cortisol and 250 uM NAD^+ were used as substrate and cofactor, respectively.

T1 sequence (P28845 24-287): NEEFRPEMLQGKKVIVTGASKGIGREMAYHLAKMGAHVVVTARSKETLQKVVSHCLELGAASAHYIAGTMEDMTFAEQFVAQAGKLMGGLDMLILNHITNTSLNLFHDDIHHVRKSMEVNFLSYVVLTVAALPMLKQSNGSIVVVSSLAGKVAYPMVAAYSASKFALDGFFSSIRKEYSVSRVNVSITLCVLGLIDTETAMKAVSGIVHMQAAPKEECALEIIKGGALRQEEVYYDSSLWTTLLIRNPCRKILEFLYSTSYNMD

Row | SMILES | pKi
1 | CC(C)(Oc1ccc(F)cc1Cl)/C(=N\C#N)NC1C2CC3CC1CC(S(C)(=O)=O)(C3)C2 (stereo not shown) [Example 18, (1E)-2-(2-Chloro-4-fluorophenoxy)-N-cyano-2-methyl-N-[(E)-5-(methylsulfonyl)-2-adamantyl]propanimidamide] | 7.00 to 8.00
2 | COC(=O)C12CC3CC(C1)C(NC(=NC#N)C(C)(C)OCc1ccc(C(F)(F)F)cc1)C(C3)C2 (stereo not shown) [Example 17, Methyl(E)-4-[((1E)-N-cyano-2-methyl-2-{[4-(trifluoromethyl)benzyl]oxy}propanimidoyl)amino]adamantane-1-carboxylate] | 6.00 to 7.00
3 | CC(C)(Oc1ccc(Cl)cc1F)C(=NC#N)NC1CCCCCCC1 [Example 61, 2-(4-chloro-2-fluorophenoxy)-N′-cyano-N-cyclooctyl-2-methylpropanimidamide] | 6.00 to 7.00
4 | CC(C)(/C(=N\C#N)N[C@@H]1[C@@H]2C[C@@H]3C[C@H]1C[C@@](C(=O)O)(C3)C2)N1CCN(c2ccc(C(F)(F)F)cn2)CC1 [Example 30, (E)-4-[((1E)-N-Cyano-2-methyl-2-{4-[5-(trifluoromethyl)pyridin-2-yl]piperazin-1-yl}propanimidoyl)amino]adamantane-1-carboxylic acid] | < 6.00
5 | CC(C)(Oc1ccc(Cl)cc1)/C(=N\C#N)N[C@@H]1[C@@H]2C[C@@H]3C[C@H]1C[C@@](C#N)(C3)C2 [Example 37, (1E)-2-(4-Chlorophenoxy)-N′-cyano-N-[(E)-5-cyano-2-adamantyl]-2-methylpropanimidamide] | 7.00 to 8.00
6 | CC(C)(Oc1ccc(Cl)cc1)C(=NC#N)NC1C2CC3CC1CC(S(C)(=O)=O)(C3)C2 (stereo not shown) [Example 19, (1E)-2-(4-Chlorophenoxy)-N-cyano-2-methyl-N-[(E)-5-(methylsulfonyl)-2-adamantyl]propanimidamide] | 7.00 to 8.00
7 | CC(C)(Oc1ccc(F)cc1Cl)C(=S)N[C@@H]1[C@@H]2C[C@@H]3C[C@H]1C[C@@](S(C)(=O)=O)(C3)C2 [Example 12, 2-(2-Chloro-4-fluorophenoxy)-2-methyl-N-[(E)-5-(methylsulfonyl)-2-adamantyl]propanethioamide] | 7.00 to 8.00
8 | COC(=O)C12CC3CC(C1)C(NC(=NC#N)C(C)(C)N1CCN(c4ccc(C(F)(F)F)cn4)CC1)C(C3)C2 (stereo not shown) [Example 29, Methyl(E)-4-[((1E)-N-cyano-2-methyl-2-{4-[5-(trifluoromethyl)pyridin-2-yl]piperazin-1-yl}propanimidoyl)amino]adamantane-1-carboxylate] | 6.00 to 7.00
9 | CC(C)(Oc1ccc(Cl)cc1)C(=NC#N)NC12CC3CC(CC(C3)C1)C2 [Example 43] | 7.00 to 8.00
10 | CC(C)(Oc1ccc(F)cc1F)C(=NC#N)NC1CC2CCC1C2 (stereo not drawn) [Example 56, N-[(exo)-bicyclo[2.2.1]hept-2-yl]-N-cyano-2-(2,4-difluorophenoxy)-2-methylpropanimidamide] | ≥ 8.00

Continued, values first:

Row | pKi | SMILES
11 | < 6.00 | N#C/N=C(\Cc1ccccc1F)N[C@@H]1[C@@H]2C[C@@H]3C[C@H]1C[C@@](O)(C3)C2 [Example 5, (1E)-N′-Cyano-2-(2-fluorophenyl)-N-[(E)-5-hydroxy-2-adamantyl]ethanimidamide]
12 | < 6.00 | N#CN=C(Cc1ccc(F)cc1F)NC1C2CC3CC1CC(O)(C3)C2 (stereo not shown) [Example 4, (1E)-N′-Cyano-2-(2,4-difluorophenyl)-N-[(E)-5-hydroxy-2-adamantyl]ethanimidamide]
13 | < 6.00 | CC(C)(Cc1ccc(Cl)cc1)C(=N)NC1C2CC3CC1CC(O)(C3)C2 (stereo not shown) [Example 22, 3-(4-Chlorophenyl)-N-[(E)-5-hydroxy-2-adamantyl]-2,2-dimethylpropanimidamide]
14 | ≥ 8.00 | CC(C)(Oc1ccc(F)cc1F)C(=NC#N)NC1C2CC3CC1CC(C(N)=O)(C3)C2 (stereo not shown) [Example 70, (E)-4-{[(1E)-N-cyano-2-(2,4-difluorophenoxy)-2-methylpropanimidoyl]amino}adamantane-1-carboxamide]
15 | < 6.00 | COc1ccc(Cl)cc1C(=NC#N)N[C@@H]1[C@@H]2C[C@@H]3C[C@H]1C[C@@](O)(C3)C2 [Example 93, 5-chloro-N′-cyano-N-[(E)-5-hydroxyadamantan-2-yl]-2-methoxybenzenecarboximidamide]
16 | 7.00 to 8.00 | CC(C)(Oc1ccccc1F)/C(=N\C#N)NC1C2CC3CC1CC(C#N)(C3)C2 (stereo not shown) [Example 78, (1E)-N′-cyano-N-[(E)-5-cyanoadamantan-2-yl]-2-(2-fluorophenoxy)-2-methylpropanimidamide]
17 | ≥ 8.00 | CC(C)(Oc1ccc(Cl)cc1)C(=NC#N)NC1C2CC3CC1CC(O)(C3)C2 (stereo not shown) [Example 8, (1E)-2-(4-Chlorophenoxy)-N′-cyano-N-[(E)-5-hydroxy-2-adamantyl]-2-methylpropanimidamide]

Test system: patients
Experiment: not given
Conditions: treatment for 4 days; cited from earlier work

Row | SMILES | lowered intraocular pressure
18 | CC1(C)[C@@H](OC(=O)CCC(=O)O)CC[C@]2(C)[C@H]3C(=O)C=C4[C@@H]5C[C@@](C)(C(=O)O)CC[C@]5(C)CC[C@@]4(C)[C@]3(C)CC[C@@H]12 [carbenoxolone] | 10%

Same assay, conditions: treatment for 7 days; cited from earlier work

Row | SMILES | lowered intraocular pressure
19 | CC1(C)[C@@H](OC(=O)CCC(=O)O)CC[C@]2(C)[C@H]3C(=O)C=C4[C@@H]5C[C@@](C)(C(=O)O)CC[C@]5(C)CC[C@@]4(C)[C@]3(C)CC[C@@H]12 [carbenoxolone] | 17%
